Reference: patent publication US5246830A, “Enzymatic process for the determination of β-lactam antibiotics” (Ucb Bioproducts, S.A., priority 1990, dated 1993)

What was measured:
[1] = molecular target: T1, enzyme R39 (soluble D-alanyl-D-alanine carboxypeptidase produced by Actinomadura R39) (Actinomadura sp. R39, UniProt P39045); assay: Enzymatic determination of penicillin G in 50 μl milk samples, visual coloration (Example 1); format: biochemical; details: 1.5 picomole enzyme R39, 4 min + 1 min at 47° C.
T1 construct: added to milk or serum samples
T1 sequence (P39045 50-515): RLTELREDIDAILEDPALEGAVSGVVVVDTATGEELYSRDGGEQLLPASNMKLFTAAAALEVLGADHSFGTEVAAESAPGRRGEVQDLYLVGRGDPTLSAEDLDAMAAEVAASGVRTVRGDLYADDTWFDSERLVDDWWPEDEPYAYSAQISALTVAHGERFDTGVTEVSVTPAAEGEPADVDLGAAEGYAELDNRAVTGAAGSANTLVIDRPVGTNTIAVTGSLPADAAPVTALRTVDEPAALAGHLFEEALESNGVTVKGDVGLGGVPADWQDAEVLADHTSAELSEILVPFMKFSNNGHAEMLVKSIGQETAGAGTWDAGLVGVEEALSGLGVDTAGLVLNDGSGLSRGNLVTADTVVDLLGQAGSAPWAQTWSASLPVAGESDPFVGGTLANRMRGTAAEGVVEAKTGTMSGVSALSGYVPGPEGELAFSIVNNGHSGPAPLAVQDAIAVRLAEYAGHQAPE
Experimental: A series of 50 μl milk samples is prepared containing known concentrations of penicillin G, and two 50 μl milk samples free from penicillin G (blank and control).
(§1) 1.5 picomole of enzyme R39, dissolved in 10 μl of 0.5M Hepes buffer (pH=8.0) containing 0.5M NaCl and 0.25M MgCl2, and 20 μl of an aqueous solution containing 50 mg/ml of D-alanine are added to each sample (control sample+samples containing penicillin G). In the blank sample, enzyme R39 dissolved in Hepes buffer is replaced by 10 μl of 0.5M Hepes buffer (pH=8.0), containing 0.5M NaCl and 0.25M MgCl2 (Hepes=4-hydroxyethyl-1-piperazineethanesulfonic acid). The mixture is incubated at 47° C. for 4 minutes.
(§2) Next, 5 μl of an aqueous solution containing 5 mg/ml [(N-benzoyl-D-alanyl)thio]-acetic acid and 10 μl of a phosphate buffer solution (pH=8.0; KH2 PO4 +K2 HPO4) containing 2 mg/ml of 5,5'-dithiobis(2-nitrobenzoic) acid are added and the mixture is incubated at 47° C. for 1 minute.
The colorations obtained in the various samples are then observed.

[2] = molecular target: T1, enzyme R39 (soluble D-alanyl-D-alanine carboxypeptidase produced by Actinomadura R39); assay: Enzymatic determination of penicillin G in serum, spectrophotometer at 410 nm (Example 7); format: biochemical; design: Optical density (at 410 nm): scale not given here; details: for Optical density (at 410 nm): blank subtracted, supernatant diluted 10 times
Experimental: The procedure of example 3 is followed, but the 3 ml milk samples are replaced by 3 ml serum samples containing known concentrations of penicillin G.
Moreover, after the second incubation lasting 5 minutes, the samples are centrifuged and the supernatants are diluted 10 times with water.
Then, the optical density is measured with a spectrophotometer at 410 nm.
The values of the optical density mentioned in Table VII are obtained by subtracting the optical density value found for the blank sample from the optical density values found respectively for the control sample and for the other samples.

[3] = molecular target: T1, enzyme R39 (soluble D-alanyl-D-alanine carboxypeptidase produced by Actinomadura R39); assay: Enzymatic determination of penicillin G in milk with 0.4 picomole enzyme R39 (Example 2); format: biochemical; details: for Coloration: 0.4 picomole enzyme R39, 10 min + 5 min
Experimental: as §1, §2
The process is exactly the same as in Example 1 except that:
0.4 picomole of enzyme R39 (instead of 1.5 picomole) is added to the samples;
the first incubation lasts 10 minutes (instead of 4 minutes) and
the second incubation lasts 5 minutes (instead of 1 minute).

[4] = molecular target: T1, enzyme R39 (soluble D-alanyl-D-alanine carboxypeptidase produced by Actinomadura R39); assay: Enzymatic determination of penicillin G in milk with [(N-phenylacetyl-D-alanyl)thio]-acetic acid as substrate (Example 4); format: biochemical; details: substrate [(N-phenylacetyl-D-alanyl)thio]-acetic acid
Experimental: The process is the same as in example 3, except that, after the first incubation, 120 μl of an aqueous solution containing 5 mg/ml of [(N-phenylacetyl-D-alanyl)thio]-acetic acid are added.

[5] = molecular target: T1, enzyme R39 (soluble D-alanyl-D-alanine carboxypeptidase produced by Actinomadura R39); assay: Enzymatic determination of penicillin G in milk, substrate and reagent combined in a tablet (Example 8); format: biochemical; details: substrate + reagent as tablet
Experimental: The process is the same as in example 3. However, after the first incubation for a period of 10 minutes, a tablet is added which contains, 600 μg of [(N-benzoyl-D-alanyl)thio]-acetic acid and 600 μg of 5,5'-dithiobis(2-nitrobenzoic) acid.
This tablet has the following overall composition (in % by weight): […]

[6] = molecular target: T1, enzyme R39 (soluble D-alanyl-D-alanine carboxypeptidase produced by Actinomadura R39); assay: Enzymatic determination of penicillin G in milk with various D-amino acids or glycine as activators (Example 5); format: biochemical
Experimental: The process is the same as in example 3, except that the aqueous solution containing 100 mg/ml of D-alanine (test I) is respectively replaced by an aqueous solution containing 100 mg/ml of D-phenylalanine (test II), of D-serine (test III), of D-histidine (test IV), of D-methionine (test V), of D-2-aminobutyric acid (test VI), or by an aqueous solution containing 200 mg/ml of glycine (test VII).

[7] = molecular target: enzyme R39 (Actinomadura sp. R39, UniProt P39045); assay: Stability of the enzyme R39-antibiotic complex; format: binding; details: at 37° C.
enzyme R39, sequence (P39045 50-515): as above
Experimental: the extraordinary stability of the said complex, because, once formed it only breaks down very slowly. By way of example, the half-life of the complex formed between enzyme R39 and penicillin G is about 70 hours at 37° C.; and […]

[8] = penicillin G 0.004 I.U./ml in 50 μl milk
[9] = penicillin G 0.008 I.U./ml in 50 μl milk

CC1(C)S[C@@H]2[C@H](NC(=O)Cc3ccccc3)C(=O)N2[C@H]1C(=O)O [penicillin G, benzyl penicillin (penicillin G)]
Coloration [1, 8]: intense yellow | Coloration [1, 9]: medium yellow | Coloration ([1]; penicillin G 0.012 I.U./ml in 50 μl milk): pale yellow | Coloration ([1]; penicillin G 0.016 I.U./ml in 50 μl milk): white | Coloration ([1]; penicillin G 0.020 I.U./ml in 50 μl milk): white | Coloration ([1]; penicillin G 0.025 I.U./ml in 50 μl milk): white | Optical density (at 410 nm) ([2]; penicillin G 0.002 I.U./ml in 3 ml serum): 226 | Optical density (at 410 nm) ([2]; penicillin G 0.003 I.U./ml in 3 ml serum): 175 | Optical density (at 410 nm) ([2]; penicillin G 0.004 I.U./ml in 3 ml serum): 49 | Optical density (at 410 nm) ([2]; penicillin G 0.006 I.U./ml in 3 ml serum): 15 | penicillin G concentration determined quantitatively with a spectrophotometer ([2]; serum): 0.002 I.U./ml | penicillin G concentration in milk detected by reference to a color chart ([3]; color chart, 15 minutes): 0.002 I.U./ml | Coloration ([3]; penicillin G 0.001 I.U./ml in 50 μl milk): intense yellow | Coloration ([3]; penicillin G 0.002 I.U./ml in 50 μl milk): medium yellow | Coloration ([3]; penicillin G 0.003 I.U./ml in 50 μl milk): pale yellow | Coloration [3, 8]: white | Coloration ([3]; penicillin G 0.005 I.U./ml in 50 μl milk): white | Coloration [3, 9]: white | Coloration ([3]; penicillin G 0.010 I.U./ml in 50 μl milk): white | Coloration ([4]; penicillin G 0.003 I.U./ml in 3 ml milk): pale yellow | Coloration ([4]; penicillin G 0.006 I.U./ml in 3 ml milk): white | Coloration ([5]; penicillin G 0.002 (in 1.U.ml) in 3 ml milk): medium yellow | Coloration ([5]; penicillin G 0.003 (in 1.U.ml) in 3 ml milk): pale yellow | Coloration ([5]; penicillin G 0.004 (in 1.U.ml) in 3 ml milk): white | Coloration ([5]; penicillin G 0.006 (in 1.U.ml) in 3 ml milk): white | Coloration ([6]; penicillin G 0.003 I.U./ml in 3 ml milk, test I, activator D-alanine 100 mg/ml): pale yellow | Coloration ([6]; penicillin G 0.003 I.U./ml in 3 ml milk, test II, activator D-phenylalanine 100 mg/ml): pale yellow | Coloration ([6]; penicillin G 0.003 I.U./ml in 3 ml milk, test III, activator D-serine 100 mg/ml): pale yellow | Coloration ([6]; penicillin G 0.003 I.U./ml in 3 ml milk, test IV, activator D-histidine 100 mg/ml): pale yallow | Coloration ([6]; penicillin G 0.003 I.U./ml in 3 ml milk, test V, activator D-methionine 100 mg/ml): pale yellow | Coloration ([6]; penicillin G 0.003 I.U./ml in 3 ml milk, test VI, activator D-2-aminobutyric acid 100 mg/ml): pale yellow | Coloration ([6]; penicillin G 0.003 I.U./ml in 3 ml milk, test VII, activator glycine 200 mg/ml): pale yellow | Coloration ([6]; penicillin G 0.006 I.U./ml in 3 ml milk, test I, activator D-alanine 100 mg/ml): white | Coloration ([6]; penicillin G 0.006 I.U./ml in 3 ml milk, test II, activator D-phenylalanine 100 mg/ml): white | Coloration ([6]; penicillin G 0.006 I.U./ml in 3 ml milk, test III, activator D-serine 100 mg/ml): white | Coloration ([6]; penicillin G 0.006 I.U./ml in 3 ml milk, test IV, activator D-histidine 100 mg/ml): white | Coloration ([6]; penicillin G 0.006 I.U./ml in 3 ml milk, test V, activator D-methionine 100 mg/ml): white | Coloration ([6]; penicillin G 0.006 I.U./ml in 3 ml milk, test VI, activator D-2-aminobutyric acid 100 mg/ml): white | Coloration ([6]; penicillin G 0.006 I.U./ml in 3 ml milk, test VII, activator glycine 200 mg/ml): white | half-life of the complex formed between enzyme R39 and the antibiotic [7]: about 70 hours
